The source of these data is PMC7287031 (Pharmacology Research & Perspectives, 2020).

Bounds are passed on as bounds.

For data set [1], the system named is CYP enzymes that metabolise ribociclib in HLM (total metabolism; CYP-selective chemical inhibitors). The experiment in a line: Inhibition of [3H] ribociclib total metabolism in HLM by CYP- and FMO-selective inhibitors. The note with it: both, human, human liver microsomes, pH 7.4, probe [3H] ribociclib. In kind it is in vitro ADME.
The nature of data set [2]: Human ADME study: quantitative metabolite profiling in urine and feces. In kind it is in vivo. The conditions noted are these: for Excretion (% of dose), Total: urine plus feces, pooled excreta n=6. How it is done: Average pools across the six subjects were also created by combining equal percentages (of total urine and feces excreted over the time interval) of the individual subject pools. Urine pools were analyzed directly for metabolite profiling (column recovery of a representative sample was measured), whereas feces pools were subjected to extraction. Specifically, to each aliquot of feces homogenate, two volumes of acetonitrile were added. After centrifugation, the pellet was washed further with an additional two volumes of acetonitrile. […] All washes were combined, evaporated under nitrogen, and reconstituted with a solution of 15‐mM ammonium formate (pH 3.5). This feces extract reconstitute was analyzed for metabolite profiling. Combined extraction and reconstitution (overall recovery) and column recovery were measured. […] The HPLC column used was a Phenomenex Kinetex, C18, 250 × 4.6 mm, equipped with a pre‐column of the same type (2.1 × 4.6 mm), which was placed in a column oven at 40°C. […] The HPLC gradient was as follows: initial conditions were 5% mobile phase B for 1 minute, then increased to 20% at 10 minutes post injection where it was held (isocratic) up to 20 minutes. […] The post column flow was directed to the fraction collector operated in a time‐slice mode and containing 96‐well Lumaplates (Perkin Elmer). The plates were dried at room temperature and the radioactivity was measured using a microplate scintillation counter model TopCount NXT (Perkin Elmer) instrument (up to 3 × 100‐minute counting time). […] Metabolites were identified during the same injections using data generated by the high‐resolution mass spectrometer. The molecular ions and key fragments of each drug‐related component were determined. Key fragments for each metabolite were derived from their product ion mass spectra and were used to determine the metabolite structures. Where possible, structural assignments were supported by exact mass measurement, comparison with synthetic standards and/or Hydrogen/Deuterium (H/D) exchange LC‐MS(/MS).

A short description of data set [3]: Human ADME study: quantitative metabolite profiling in plasma. On the set-up: AUC0-48h: concentration or dose not given beside the values. In kind it is in vivo. On the procedure: A plasma pool across the six healthy volunteers included in the study was prepared at the time points of 1 hour, 3 hours, 24 hours, and 48 hours post dose. For each time point, an equal volume of plasma was taken from each subject and combined. Plasma pool samples were processed by protein precipitation with acetonitrile. The protein pellet that resulted from precipitation with acetonitrile was washed further with additional aliquots of acetonitrile. All acetonitrile washes were combined and evaporated under nitrogen. For the 3‐ and 24‐hour plasma pools, the extraction procedure was slightly modified, including precipitation of the plasma proteins by addition of a 1:1 mixture of acetonitrile:methanol, followed by washing of the protein pellet with the same solvent mixture. All extracts were reconstituted with a solution of 15‐mM ammonium formate and acetonitrile (95:5 v/v). Extraction and reconstitution recoveries were measured in all four plasma samples in order to calculate and overall recovery. Quantitative metabolite profiling in plasma was accomplished using a Shimadzu Prominence high‐performance liquid chromatography (HPLC) system (Shimadzu, Columbia, MD, USA), coupled with fraction collection and analysis of total radioactivity in individual fractions using AMS (as described above). A second injection of each sample, conducted immediately after the first, was used to provide HPLC fractions for metabolite identification. The fractions identified as containing radioactivity from the AMS analysis were analyzed by HPLC coupled with high‐resolution mass spectrometry to identify the metabolites. The HPLC‐MS/MS methodology used is described below.

Data set [4] is described as follows: Contribution of metabolites to total pharmacological activity in human. The conditions noted are these: considering in vitro measurements and in vivo exposure.
Substrate in data set [5]: CN(C)C(=O)c1cc2cnc(Nc3ccc(N4CCNCC4)cn3)nc2n1C1CCCC1
In words: Enzyme kinetics with recombinant CYP3A5 and scaling to HLM. The note with it: other: recombinant CYP3A5; 37.0 °C. In kind it is in vitro ADME, human. How it is done: (§1) In vitro incubations were carried out in 100‐mM potassium phosphate buffer (pH 7.4) and 5‐mM MgCl2 with a total volume of 200 µL. Substrate and either human liver microsomes (HLM, BD Biosciences, mixed gender pool of n = 50) or recombinant human enzymes (BD Biosciences) were added and pre‐incubated for 3 minutes at 37°C. The reaction was started by addition of a fresh solution of NADPH (1 mmol/L final concentration). The samples were incubated at 37°C with agitation of 500 rpm. For incubations with CYP2A6, CYP2C9, CYP2C18, and CYP4A11, the phosphate buffer was replaced by TRIS buffer (100 mmol/L, pH 7.4) and for flavin‐containing monooxygenases (FMOs), a glycine buffer (50 mM, pH 9.5) was used.
(§2) The enzymatic reaction was stopped and the protein was precipitated by addition of an equal volume of methanol. After 30 min at −80°C, the samples were centrifuged at 30'000 x g for 15 min. The supernatant was withdrawn. Aliquots were analyzed by LSC and the supernatant was diluted with water to obtain a final solution containing less than 20% of the organic solvent. For samples of low substrate concentration, supernatants were evaporated to dryness under nitrogen, then re‐suspended in water containing less than 20% of methanol. Samples were analyzed by HPLC combined with radiodetection.
(§3) The relative contribution of CYP enzymes to oxidative hepatic metabolism was determined using their Clint values multiplied by the unbound fraction in microsomes and their abundances in human liver microsomes. ^15 Among the hepatic P450 enzymes, CYP3A4 contributed predominantly (97%) to metabolism in human liver microsomes (Table 1) with negligible fraction metabolized by CYP1A2 (1.1%), CYP2J2 (0.8%), and CYP3A5 (1.2%).

Substrate in data set [6]: CN(C)C(=O)c1cc2cnc(Nc3ccc(N4CCNCC4)cn3)nc2n1C1CCCC1
The experiment in a line: Enzyme kinetics with recombinant CYP1A2 and scaling to HLM. In kind it is in vitro ADME, human. The conditions noted are these: other: recombinant CYP1A2; 37.0 °C. On the procedure: as §1, §2, §3

Where [7] appears, read: human plasma pools n=6, from metabolite patterns.

In data set [1], `CC[C@]1(C)C[C@@H](OC(=O)CSc2nnc(N)[nH]2)[C@]2(C)[C@H](C)CC[C@]3(CCC(=O)[C@H]32)[C@@H](C)[C@@H]1O` [Azamulin] yielded a concentration for half-maximal inhibition (IC50) of 1050 nM.

With `CC(C)(O)c1ccccc1CC[C@@H](SCC1(CC(=O)O)CC1)c1cccc(/C=C/c2ccc3ccc(Cl)cc3n2)c1` [Montelukast], the half-inhibitory concentration (IC50) in data set [1] is over 2000 nM.

Regarding `CN(C)C(=O)c1cc2cnc(Nc3ccc(N4CCN(S(=O)(=O)O)CC4)cn3)nc2n1C1CCCC1` [M8 (CQM386)], in data set [2], the “Excretion (% of dose), Total” value is recorded as < 5.21 % of dose. In addition, in data set [3] (setting [7]), the AUC0-48h stood at 0.0142 µM·h and the “AUC0-48h, % of total [14C]-AUC0-48” value stood at 0.0297%. The “Concentration in plasma pool” value in data set [3] (human, 1 h post dose, pool n=6, from metabolite patterns) was found to be 9.50 nM.

Turning to `CN(C)C(=O)c1cc2cnc(Nc3ccc(N4CCN(O)CC4)cn3)nc2n1C1CCCC1` [M13 (CCI284)], the “contribution to total pharmacological activity in human” value in data set [4] was “not to have a relevant contribution to total pharmacological activity”. In data set [3] (setting [7]), the “AUC0-48h, % of total [14C]-AUC0-48” value turned out to be 9.39%. The “metabolite exposure as % of ribociclib exposure” value in data set [3] (human plasma, AUC0-48) is 21.6%.

Take `CN(CO)C(=O)c1cc2cnc(Nc3ccc(N4CCNCC4)cn3)nc2n1C1CCCC1` [M15]: in data set [2] (pooled excreta n=6, from metabolite patterns (radio profiling)), the “Excretion (% of dose), Urine” value is given as 1.50 % of dose. In addition, in data set [2], the “Excretion (% of dose), Total” value is reported as 1.50 % of dose. For the same molecule, the “detection in plasma (AMS metabolite profiling)” value in data set [3] (human plasma) is “not observed in plasma”.

B1: CYP3A5 (Homo sapiens) (protein)
chain: MDLIPNLAVETWLLLAVSLVLLYLYGTRTHGLFKRLGIPGPTPLPLLGNVLSYRQGLWKFDTECYKKYGKMWGTYEGQLPVLAITDPDVIRTVLVKECYSVFTNRRSLGPVGFMKSAISLAEDEEWKRIRSLLSPTFTSGKLKEMFPIIAQYGDVLVRNLRREAEKGKPVTLKDIFGAYSMDVITGTSFGVNIDSLNNPQDPFVESTKKFLKFGFLDPLFLSIILFPFLTPVFEALNVSLFPKDTINFLSKSVNRMKKSRLNDKQKHRLDFLQLMIDSQNSKETESHKALSDLELAAQSIIFIFAGYETTSSVLSFTLYELATHPDVQQKLQKEIDAVLPNKAPPTYDAVVQMEYLDMVVNETLRLFPVAIRLERTCKKDVEINGVFIPKGSMVVIPTYALHHDPKYWTEPEEFRPERFSKKKDSIDPYIYTPFGTGPRNCIGMRFALMNMKLALIRVLQNFSFKPCKETQIPLKLDTQGLLQPEKPIVLKVDSRDGTLSGE
notes: purchased BD Biosciences
Take B1: in data set [5], the Km worked out at 23.9 µM, the turnover number (kcat) was 0.0122 s⁻¹ and the catalytic efficiency (kcat/Km) was 517 M⁻¹ s⁻¹.

B2: CYP1A2 (Homo sapiens) (protein)
chain: MALSQSVPFSATELLLASAIFCLVFWVLKGLRPRVPKGLKSPPEPWGWPLLGHVLTLGKNPHLALSRMSQRYGDVLQIRIGSTPVLVLSRLDTIRQALVRQGDDFKGRPDLYTSTLITDGQSLTFSTDSGPVWAARRRLAQNALNTFSIASDPASSSSCYLEEHVSKEAKALISRLQELMAGPGHFDPYNQVVVSVANVIGAMCFGQHFPESSDEMLSLVKNTHEFVETASSGNPLDFFPILRYLPNPALQRFKAFNQRFLWFLQKTVQEHYQDFDKNSVRDITGALFKHSKKGPRASGNLIPQEKIVNLVNDIFGAGFDTVTTAISWSLMYLVTKPEIQRKIQKELDTVIGRERRPRLSDRPQLPYLEAFILETFRHSSFLPFTIPHSTTRDTTLNGFYIPKKCCVFVNQWQVNHDPELWEDPSEFRPERFLTADGTAINKPLSEKMMLFGMGKRRCIGEVLAKWEIFLFLAILLQQLEFSVPPGVKVDLTPIYGLTMKHARCEHVQARLRFSIN
notes: purchased BD Biosciences
For B2, in data set [6], the Km was determined as 48 µM, the kcat stood at 0.0185 s⁻¹ and the kcat/Km is 383 M⁻¹ s⁻¹.
